Laboratory results from patent US20110229450A1, “ENZYMES AND METHODS FOR DEGRADING S-TRIAZINES AND DIAZINES” (Commonwealth Scientific and industrial Research Organisation, priority 2008, published 2011).
Residue numbers refer to the chain shown, from its start. Names may count otherwise. Like-named read-outs stand apart in the source and are kept apart here.

B1: TrzN Wildtype: Wild-type TrzN triazine hydrolase, SEQ ID NO:1; codon optimised open reading frame TrzNco, SEQ ID NO:2 (protein, listed as Arthrobacter aurescens)
chain: MILIRGLTRVITFDDQERELEDADILIDGPKIVAVGKDLSDRSVSRTIDGRGMIALPGLINSHQHLYEGAMRAIPQLERVTMASWLEGVLTRSAGWWRDGKFGPDVIREVARAVLLESLLGGITTVADQHLFFPGATADSYIDATIEAATDLGIRFHAARSSMTLGKSEGGFCDDLFVEPVDRVVQHCLGLIDQYHEPEPFGMVRIALGPCGVPYDKPELFEAFAQMAADYDVRLHTHFYEPLDAGMSDHLYGMTPWRFLEKHGWASDRVWLAHAVVPPREEIPEFADAGVAIAHLIAPDLRLGWGLAPIREYLDAGITVGFGTTGSASNDGGNLLGDLRLAALAHRPADPNEPEKWLSARELLRMATRGSAECLGRPDLGVLEEGRAADIACWRLDGVDRVGVHDPAIGLIMTGLSDRASLVVVNGQVLVENERPVLADLERIVANTTALIPKNL
B2: S161G (protein)
chain: B1 chain with S161G
B3: L335M (protein)
chain: B1 chain with L335M
B4: D38N (protein)
chain: B1 chain with D38N
B5: T91S (protein)
chain: B1 chain with T91S
B6: P210A (protein)
chain: B1 chain with P210A

How the values were obtained:
[1] = system: TrzN; details: from Shapir et al. (2006); ametryn = 1; cited from earlier work
[2] = system: TrzN cc3.2; assay: Substrate range: hydrolysis of triazines by purified TrzN cc3.2 (loss of absorbance at 264 nm); format: biochemical; details: for Hydrolysis by TrzN cc3.2: purified enzyme; for Relative Activity in TrzN cc3.2: specific activity at 100 μM substrate and 41 nM TrzN cc3.2, ametryn = 1
[3] = read-out: Kd for zinc; cited from earlier work
[4] = system: Apo-TrzNcc3.2; assay: Saturation of Apo-TrzNcc3.2 with Zn^2+; format: binding
[5] = from 5 litres; Shapir et al. (2005); cited from earlier work
[6] = format: cell-based, E. coli strain BL21 λDE3; details: for Time to clear: 1% atrazine (w/v), 1 mM IPTG LB agar plates, 37° C., BL21 λDE3 pETcc2; for atrazine dechlorinase activity / clearing rate after substitution, compared with wild-type or parental gene: site-saturation and random mutagenesis
[7] = Atrazine clearing plate assay, low-level constitutive vector pCS150 in three E. coli strains; format: cell-based; details: E. coli JM109, DH10β and BL21 λDE3, 37° C.
Procedure: Random and site-saturated libraries were screened using LB agar plates supplemented with 200 μg.mL^−1 ampicillin, 1 μM IPTG and impregnated with 1 mg.mL^−1 atrazine (90% atrazine w/w; Gesaprim 900 WG, Syngenta). […] The level of activity was determined by the rate at which the clarification occurred.
The entire coding region for both TrzNcc3.2 and wild-type TrzN were moved from the inducible, high-level expression vector pETcc2 into a low-level, constitutive expression vector (pCS150, Scott et al., 2009). The resultant vectors were used to transform E. coli JM109, DH10β, and BL21 λDE3 cells. The six resultant strains were tested for their rates of clearing using the atrazine clearing plate assay.

[8] = read-out: Km for atrazine; cited from earlier work

Molecule | Hydrolysis by TrzN cc3.2 [2] | Relative Activity in TrzN cc3.2 [2] | further results
CCNc1nc(NC(C)C)nc(SC)n1 [Ametryn, N2-ethyl-N4-isopropyl-6-methylthio-1,3,5-triazine-2,4-diamine] | able to hydrolyse | 1 | Relative Activity in TrzN* [1]: 1
CCN(CC)c1nc(Cl)nc(NC(C)C)n1 [Ipazine, 6-chloro-N,N-diethyl-N′-(1-methylethyl)-1,3,5-triazine-2,4-diamine] | able to hydrolyse | 0.07 | –
CSc1nc(NC(C)C)nc(NC(C)C)n1 [Prometryn, N2,N4-diisopropyl-6-methylthio-1,3,5-triazine-2,4-diamine] | able to hydrolyse | 1 | –
CCNc1nc(Cl)nc(NC(C)(C)C#N)n1 [Cyanozine, 2-[[4-chloro-6-(ethyamino)-1,3,5-triazin-2-yl]amino]-2-methylpropanenitrile] | able to hydrolyse | 0.43 | –
CCNc1nc(Cl)nc(N(CC)CC)n1 [Trietazine, 6-chloro-N,N,N′-triethyl-1,3,5-triazine-2,4-diamine] | able to hydrolyse | 0.04 | –
CC(C)Nc1nc(Cl)nc(NC(C)C)n1 [Propazine, 6-chloro-N,N′-bis(1-methylethyl)-1,3,5-triazine-2,4-diamine] | able to hydrolyse | 0.86 | –
CCNc1nc(Cl)nc(NC(C)C)n1 [Atrazine, 6-chloro-N-ethyl-N′-(1-methylethyl)-1,3,5-triazine-2,4-diamine] | able to hydrolyse | 1.36 | Relative Activity in TrzN* [1]: 0.16
CCNc1nc(NCC)nc(SC)n1 [Simetryn, N2,N4-diethyl-6-methylthio-1,3,5-triazine-2,4-diamine] | able to hydrolyse | 0.57 | Relative Activity in TrzN* [1]: 0.14
superoxide dismutase | – | – | Kd [3]: 0.01 nM
CCNc1nc(Cl)nc(NCC)n1 [Simazine, 6-chloro-N,N″-diethyl-1,3,5-triazine-2,4-diamine] | able to hydrolyse | 1.36 | Relative Activity in TrzN* [1]: 0.41
[Zn+2] [Zn^2+] | – | – | EC50 ([4]; read-out: ZnCl2 concentration at which half maximal activity was recovered): 2600 nM; Kd ([4]; read-out: dissociation constant for Zn^2+): 2600 nM
B1 | – | – | yield of partial purification [5]: 2.8 mg; Time to clear [6]: None; Time to clear ([6]; listed as trzNco): > 30 days; Time to clear [7]: > 12 days; Km [8]: 20 µM
B2 | – | – | atrazine dechlorinase activity / clearing rate after substitution, compared with wild-type or parental gene [6]: improved activities
B3 | – | – | atrazine dechlorinase activity / clearing rate after substitution, compared with wild-type or parental gene [6]: improved activities
B4 | – | – | clearing phenotype ([6]; D38X site saturation library in a L131P A159V background): apparently improved clearing phenotypes
B5 | – | – | atrazine dechlorinase activity / clearing rate after substitution, compared with wild-type or parental gene [6]: improved activities
B6 | – | – | atrazine dechlorinase activity / clearing rate after substitution, compared with wild-type or parental gene [6]: improved activities
